In publication PMC4142866, “The chemoenzymatic synthesis of clofarabine and related 2′-deoxyfluoroarabinosyl nucleosides: the electronic and stereochemical factors determining substrate recognition by E. coli nucleoside phosphorylases” (Beilstein Journal of Organic Chemistry, 2014):

Biological target: T1, recombinant E. coli purine nucleoside phosphorylase (PNP) (Escherichia coli, UniProt P0ABP8)
T1 construct: gene deoD
T1 sequence (P0ABP8 2-239): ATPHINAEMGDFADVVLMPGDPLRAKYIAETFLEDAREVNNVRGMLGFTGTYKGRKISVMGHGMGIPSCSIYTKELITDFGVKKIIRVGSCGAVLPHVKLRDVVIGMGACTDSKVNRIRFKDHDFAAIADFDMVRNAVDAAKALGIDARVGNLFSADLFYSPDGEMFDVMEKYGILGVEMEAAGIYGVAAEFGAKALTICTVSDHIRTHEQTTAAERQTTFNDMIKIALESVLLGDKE
Assay: inhibition of PNP nucleoside synthesis
Type: biochemical
Details: not a substrate; moderate inhibitor of the synthetic reaction; no value

Nc1nc(=O)n2ccn([C@@H]3O[C@H](CO)[C@@H](O)[C@@H]3O)c2n1 [4b, arabinoside 4b]
inhibition of PNP nucleoside synthesis: nucleosides 4b and 5b are not substrates for E. coli PNP and moderately inhibit

O=c1[nH]cnc2c1cnn2[C@@H]1O[C@H](CO)[C@@H](O)[C@@H]1O [5b, arabinoside 5b]
inhibition of PNP nucleoside synthesis: nucleosides 4b and 5b are not substrates for E. coli PNP and moderately inhibit
